According to patent EP0498830B1, “GLUTAMIC AND ASPARTIC ACID DERIVATIVES WITH ANTIGASTRIN ACTIVITY AND A METHOD FOR THEIR PREPARATION” (ROTTA RESEARCH LABORATORIUM S.P.A., priority 1989, dated 1991):

Key:
[1] = molecular target: T1, central gastrin receptors (Mus musculus, UniProt P56481); assay: Inhibition of binding of tritiated pentagastrin to mouse cerebral cortex membranes; set-up: Cerebral cortex membranes were therefore used and pentagastrin tritiate was again used as the ligand; from tissue; host or cells: mouse cerebral cortex membranes; species or system mice; conditions: displacement of pentagastrin tritiate; 40 minutes at 37°C
T1 sequence (P56481 1-453): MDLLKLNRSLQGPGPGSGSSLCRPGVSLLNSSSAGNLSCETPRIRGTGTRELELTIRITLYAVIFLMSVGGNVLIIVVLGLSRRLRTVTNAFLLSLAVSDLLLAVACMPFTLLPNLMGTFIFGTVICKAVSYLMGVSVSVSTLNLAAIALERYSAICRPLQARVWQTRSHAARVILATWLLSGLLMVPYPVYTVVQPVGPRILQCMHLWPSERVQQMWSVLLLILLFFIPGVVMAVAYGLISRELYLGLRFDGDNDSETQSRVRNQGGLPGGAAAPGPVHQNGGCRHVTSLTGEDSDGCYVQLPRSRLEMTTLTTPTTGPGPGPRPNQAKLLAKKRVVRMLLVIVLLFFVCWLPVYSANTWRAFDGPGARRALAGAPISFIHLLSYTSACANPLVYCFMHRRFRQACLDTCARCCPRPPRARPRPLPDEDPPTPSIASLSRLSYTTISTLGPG
Method: Cerebral cortex membranes were therefore used and pentagastrin tritiate was again used as the ligand.
Mouse cortex tissue was homogenised cold in 20 volumes of tris buffer (pH 7.7). After washing and centrifuging, the final pellet was resuspended in 20 volumes of binding buffer containing, inter alia, TRIS, BSA and bacitracin. 0.4 ml of the membrane thus obtained were then incubated with a radioactive tracer and with the compounds under test for 40 minutes at 37°C.
After the supernatant liquid had been removed by centrifuging, the radioactivity associated with the pellet was determined, again with a liquid scintillator. The specific binding is the difference between the binding in the absence and in the presence of 10⁻⁶M pentagastrin.
Again, this gives the IC50s of the compounds tested with the meaning as given above.

[2] = tested on: mouse colic adenocarcinoma; assay: Pentagastrin-induced growth of transplanted colic tumour in mice; format: in vivo; conditions: pentagastrin alone, 250 mcg/ml twice a day, 20 days
From the text: (§1) Male mice weighing 20-25g were inoculated subcutaneously in the interscapular region with a suspension of 8 x 10⁴ tumour cells of a mouse colic adenocarcinoma. […] After 20 days, the animals were killed and the fundic mucosa and the tumours were removed, weighed and extracted in order to determine their DNA content.

[3] = molecular target: T2, gastrin receptor sites on the parietal cell membranes of the fundic mucosa of a guinea-pig stomach (Cavia porcellus, UniProt H0VZC5); assay: Inhibition of binding of tritiated pentagastrin to isolated guinea-pig gastric glands; set-up: from tissue; host or cells: isolated guinea-pig gastric (fundic) glands; conditions: displacement of 50% of pentagastrin tritiate; 30 minutes at 25°C
T2 sequence (H0VZC5 1-426): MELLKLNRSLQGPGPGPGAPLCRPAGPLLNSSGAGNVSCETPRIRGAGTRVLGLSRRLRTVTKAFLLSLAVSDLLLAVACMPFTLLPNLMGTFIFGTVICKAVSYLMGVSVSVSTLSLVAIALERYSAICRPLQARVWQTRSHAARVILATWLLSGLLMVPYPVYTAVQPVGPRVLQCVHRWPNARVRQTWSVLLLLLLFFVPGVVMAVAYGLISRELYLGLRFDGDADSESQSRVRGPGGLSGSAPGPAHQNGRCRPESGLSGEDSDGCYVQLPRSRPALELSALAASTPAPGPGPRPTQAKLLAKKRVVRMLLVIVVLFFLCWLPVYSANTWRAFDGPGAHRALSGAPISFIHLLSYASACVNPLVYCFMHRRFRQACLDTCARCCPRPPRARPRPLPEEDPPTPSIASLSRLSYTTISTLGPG
Method: The capacity of some of the compounds which are the subject of the invention to inhibit the binding of pentagastrin-[beta-alanyl-3-3H(N)] to the gastrin receptor sites on the parietal cell membranes of the fundic mucosa of a guinea-pig stomach was evaluated by comparison with the displacement of pentagastrin induced by proglumide, which is a reference antigastrin compound, by lorglumide, which is a powerful CCK antagonist mentioned above, and by the compound D5 which is the optical antipode (the L-series enantiomer) of the compound D1.
Male guinea pigs weighing about 400-500g were used. After the guinea pig had been killed, its stomach was removed and placed in oxygenated SPB buffer at 37°C (SPB = saline phosphate buffer: 149.6 mM NaCl, 3 mM K₂HPO₄, 0.64 mM NaH₂PO₄, pH 7.3).
After washing in the buffer, the stomach was placed on a petri dish and the antral part discarded.
The mucosa of the remaining part was removed from the underlying muscular part and was then chopped and transferred to a flask containing a collagenase digestion solution, 0.1% BSA and 0.2% glucose. […]
After the supernatant liquid had been removed by centrifuging, the radioactivity associated with the pellet was determined with a liquid scintillator. The specific binding was determined as the difference between the binding in the absence and in the presence of 10⁻⁶ M pentagastrin. […]

fundic mucosa = assay: Pentagastrin-induced hyperplasia of the fundic mucosa in tumour-bearing mice; format: in vivo; conditions: pentagastrin alone, 250 mcg/ml twice a day, 20 days
From the text: as §1

**Q.** What does the source list for `CSCC[C@H](NC(=O)[C@H](Cc1c[nH]c2ccccc12)NC(=O)CCNC(=O)OC(C)(C)C)C(=O)N[C@@H](CC(=O)O)C(=O)N[C@@H](Cc1ccccc1)C(N)=O` [Pentagastrin]?
**A.** IC50 [1]: 780 pM; TUMOROUS DNA [2]: 4.48 ± 0.29 mg; WEIGHT OF THE COLIC TUMOUR [2]: 779.7 ± 27 mg; IC50 [3]: 410 pM; FUNDIC DNA (fundic mucosa): 0.44 ± 0.03 mg; WEIGHT OF THE FUNDIC MUCOSA (fundic mucosa): 36.0 ± 4.2 mg
